In patent publication US7902186B2, “Substituted 5-phenyl-3,6-dihydro-2-oxo-6H-1,3,4-thiadiazines” (Merck Patent GmbH, priority 2005, dated 2011):

target: T1, Met kinase (Homo sapiens, UniProt P08581); assay: Met kinase inhibition, flashplate method; assay type: biochemical; details: 33P-ATP, substrate pAGLT, 3 hrs at room temperature, read-out: IC50 (enzyme)
T1 construct: 6His (N); purchased Upstate 14-526; host or cells: Sf21 insect cells (S. frugiperda), baculovirus
Description: Measurement of Met Kinase Activity
According to the manufacturer's data (Met, active, upstate, catalogue No. 14-526), Met kinase is expressed for the purposes of protein production in insect cells (Sf21; S. frugiperda) and subsequent affinity-chromatographic purification as “N-terminal 6His-tagged” recombinant human protein in a baculovirus expression vector.
Flashplate Method (Met Kinase)
The test plates used are 96-well Flashplate® microtitre plates from Perkin Elmer (Cat. No. SMP200). The components of the kinase reaction described below are pipetted into the assay plate. The Met kinase and the substrate poly Ala-Glu-Lys-Tyr, (pAGLT, 6:2:5:1), are incubated for 3 hrs at room temperature with radioactively labelled ^33P-ATP in the presence and absence of test substances in a total volume of 100 μl. The reaction is terminated using 150 μl of a 60 mM EDTA solution. After incubation for a further 30 min at room temperature, the supernatants are filtered off with suction, and the wells are washed three times with 200 μl of 0.9% NaCl solution each time. The measurement of the bound radioactivity is carried out by means of a scintillation measuring instrument (Topcount NXT, Perkin-Elmer).
The full value used is the inhibitor-free kinase reaction. This should be approximately in the range 6000-9000 cpm. The pharmacological zero value used is staurosporin in a final concentration of 0.1 mM. The inhibitory values (IC50) are determined using the RS1_MTS program.
Kinase Reaction Conditions Per Well:
• 30 μl of assay buffer • 10 μl of substance to be tested in assay buffer with 10% of DMSO • 10 μl of ATP (final concentration 1 μM cold, 0.35 μCi of ^33P-ATP) • 50 μl of Met kinase/substrate mixture in assay buffer; • (10 ng of enzyme/well, 50 ng of pAGLT/well)
Assay Buffer: • 50 mM HEPES • 3 mM magnesium chloride • 3 μM sodium orthovanadate • 3 mM manganese(II) chloride • 1 mM dithiothreitol (DTT) • pH=7.5 (to be set using sodium hydroxide)
Stop Solution: • 60 mM Titriplex III (EDTA)
^33P-ATP: Perkin-Elmer; • Met kinase: Upstate, Cat. No. 14-526, Stock 1 μg/10 μl; spec. activity 954 U/mg; • Poly-Ala-Glu-Lys-Tyr, 6:2:5:1: Sigma Cat. No. P1152

T1 sequence (P08581 974-1390 limits assumed): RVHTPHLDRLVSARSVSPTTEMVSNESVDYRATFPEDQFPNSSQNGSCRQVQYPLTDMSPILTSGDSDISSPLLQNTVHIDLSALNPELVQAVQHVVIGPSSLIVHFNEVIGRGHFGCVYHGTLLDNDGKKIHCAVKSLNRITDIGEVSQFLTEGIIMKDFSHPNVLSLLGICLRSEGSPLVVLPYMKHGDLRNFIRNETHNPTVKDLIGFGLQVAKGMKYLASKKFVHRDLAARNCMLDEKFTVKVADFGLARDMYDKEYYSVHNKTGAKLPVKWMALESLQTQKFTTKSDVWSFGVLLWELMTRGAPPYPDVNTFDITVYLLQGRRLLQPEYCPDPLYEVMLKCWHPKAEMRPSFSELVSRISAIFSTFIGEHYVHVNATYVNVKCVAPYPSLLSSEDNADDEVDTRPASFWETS

IC50, 10 to 1000 nM:
CC(c1cccc(NC(=O)OCCCN2CCN(C)CC2)c1)N1N=C(c2ccc(F)c(F)c2)CSC1=O (stereo not shown) [Compound A30]
CCNCCCOC(=O)Nc1cccc(CN2N=C(c3ccc(C#N)cc3)CSC2=O)c1 [Compound A33]
COc1ccccc1C1=NN(Cc2cccc(NC(=O)OCCCN(C)C)c2)C(=O)SC1 [Compound A17]
CN(C)CCCOC(=O)Nc1cccc(CN2N=C(c3ccc(C#N)cc3)CSC2=O)c1 [Compound A20]
CC(c1cccc(NC(=O)OCCCN(C)C)c1)N1N=C(c2ccc(F)c(F)c2)CSC1=O (stereo not shown) [Compound A31]
CN(C)CCCOC(=O)Nc1cccc(CN2N=C(c3ccccc3F)CSC2=O)c1 [Compound A12]
O=C(Nc1cccc(CN2N=C(c3cc(Cl)ccc3O)CSC2=O)c1)c1cccnc1 [Compound B4]
CC(c1cccc(NC(=O)OCCCN2CCOCC2)c1)N1N=C(c2ccc(F)c(F)c2)CSC1=O (stereo not shown) [Compound A29]
CN(C)CCCOC(=O)Nc1cccc(CN2N=C(c3ccc(Cl)cc3)CSC2=O)c1 [Compound A6]
CNCC(=O)Nc1cccc(CN2N=C(c3cc(Cl)ccc3O)CSC2=O)c1 [Compound B1, N-{3-[5-(5-chloro-2-hydroxyphenyl)-2-oxo-6H-1,3,4-thiadiazin-3-ylmethyl]phenyl}-2-methylaminoacetamide]
O=C(Nc1cccc(CN2N=C(c3ccccc3O)CSC2=O)c1)c1cccnc1 [Compound B6]
CN(C)CCCOC(=O)Nc1cccc(CN2N=C(c3cccc(F)c3)CSC2=O)c1 [Compound A11]
CCOC(=O)Nc1cccc(CN2N=C(c3ccc(Cl)cc3)CSC2=O)c1 [Compound A7]
